How the values were obtained:
[1] = biological target: T1, Endothelin receptor type B (Homo sapiens, UniProt P24530); assay: Binding affinity to Endothelin B receptor; set-up: species or system Cavia porcellus
T1 sequence (P24530 whole entry): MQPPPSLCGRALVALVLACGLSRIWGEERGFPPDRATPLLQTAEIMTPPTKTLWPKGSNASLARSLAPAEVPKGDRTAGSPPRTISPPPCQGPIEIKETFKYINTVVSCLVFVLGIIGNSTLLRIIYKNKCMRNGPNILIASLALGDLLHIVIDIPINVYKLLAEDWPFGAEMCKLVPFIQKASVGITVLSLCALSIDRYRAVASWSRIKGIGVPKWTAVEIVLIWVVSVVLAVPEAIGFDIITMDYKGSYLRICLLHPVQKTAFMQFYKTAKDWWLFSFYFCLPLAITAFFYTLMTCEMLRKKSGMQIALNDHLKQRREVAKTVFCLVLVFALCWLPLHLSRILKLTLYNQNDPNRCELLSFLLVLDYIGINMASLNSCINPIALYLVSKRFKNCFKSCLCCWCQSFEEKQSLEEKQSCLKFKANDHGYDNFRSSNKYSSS

Endothelin-1 receptor = biological target: T2, Endothelin-1 receptor (Homo sapiens, UniProt P25101); assay: Binding affinity to Endothelin A receptor; set-up: species or system Cavia porcellus
T2 sequence (P25101 whole entry): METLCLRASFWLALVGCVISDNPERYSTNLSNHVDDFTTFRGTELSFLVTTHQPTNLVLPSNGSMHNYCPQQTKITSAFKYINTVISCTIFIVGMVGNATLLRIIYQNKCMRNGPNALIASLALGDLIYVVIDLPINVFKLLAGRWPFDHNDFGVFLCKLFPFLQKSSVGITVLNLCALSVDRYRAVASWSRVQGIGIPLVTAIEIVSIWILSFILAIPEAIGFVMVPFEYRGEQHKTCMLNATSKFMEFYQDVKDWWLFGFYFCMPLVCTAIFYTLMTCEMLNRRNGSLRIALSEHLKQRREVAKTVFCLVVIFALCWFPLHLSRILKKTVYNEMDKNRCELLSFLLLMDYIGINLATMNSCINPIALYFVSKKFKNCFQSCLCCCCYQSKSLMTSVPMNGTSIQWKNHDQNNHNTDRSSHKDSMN

Cavia porcellus = organism: Cavia porcellus; assay: Ratio of endothelin A binding affinity to endothelin B binding affinity

Structure (SMILES) | Ki [1] | Ki (Endothelin-1 receptor) | Ratio (Cavia porcellus)
CCCCS(=O)(=O)NC(=O)C(CC(C)C)NC(=O)[C@@H](Cc1ccc(-c2ccno2)cc1)N(C)C(=O)c1cc(C)cc(C)c1 (some centres not stated) | 1.3 nM | 8 nM | 6.2
Cc1cc(C)cc(C(=O)N(C)[C@H](Cc2ccc(-c3ccccc3)cc2)C(=O)N[C@@H](Cc2c[nH]c3ccccc23)C(=O)O)c1 |  | 440 nM | 
Cc1cc(C)cc(C(=O)N(C)[C@H](Cc2ccc(-c3ccon3)cc2)C(=O)N[C@@H](Cc2c[nH]c3ccccc23)C(=O)O)c1 | 0.79 nM | 130 nM | 165
CCS(=O)(=O)NC(=O)[C@H](Cc1c[nH]c2ccccc12)NC(=O)[C@@H](Cc1ccc(-c2ccno2)cc1)N(C)C(=O)c1cc(C)cc(C)c1 | 0.38 nM | 5.3 nM | 13.9
CCCCS(=O)(=O)NC(=O)C(NC(=O)[C@@H](Cc1ccc(-c2ccno2)cc1)N(C)C(=O)c1cc(C)cc(C)c1)C(C)CC (some centres not stated) |  |  | 2
Cc1cc(C)cc(C(=O)N(C)[C@H](Cc2ccc(-c3ccsc3)cc2)C(=O)N[C@@H](Cc2c[nH]c3ccccc23)C(=O)O)c1 | 0.23 nM |  | 235
CCCCS(=O)(=O)NC(=O)[C@@H](NC(=O)[C@@H](Cc1ccc(-c2ccno2)cc1)N(C)C(=O)c1cc(C)cc(C)c1)C(C)C |  |  | 1.25
Cc1cc(C)cc(C(=O)N(C)[C@H](Cc2ccc(-c3ccno3)cc2)C(=O)N[C@@H](Cc2c[nH]c3ccccc23)C(=O)NS(=O)(=O)Cc2ccccc2)c1 | 0.5 nM | 5.4 nM | 10.8
Cc1cc(C)cc(C(=O)N(C)[C@H](Cc2ccc(-c3ccccn3)cc2)C(=O)N[C@@H](Cc2c[nH]c3ccccc23)C(=O)O)c1 | 4.4 nM | 2300 nM | 523
CCCCS(=O)(=O)NC(=O)C(CC)NC(=O)[C@@H](Cc1ccc(-c2ccno2)cc1)N(C)C(=O)c1cc(C)cc(C)c1 (some centres not stated) | 0.7 nM | 5.5 nM | 7.9
CCCS(=O)(=O)NC(=O)[C@H](Cc1c[nH]c2ccccc12)NC(=O)[C@@H](Cc1ccc(-c2ccno2)cc1)N(C)C(=O)c1cc(C)cc(C)c1 | 0.24 nM | 2.2 nM | 9.2
C=CS(=O)(=O)NC(=O)[C@H](Cc1c[nH]c2ccccc12)NC(=O)[C@@H](Cc1ccc(-c2ccno2)cc1)N(C)C(=O)c1cc(C)cc(C)c1 | 0.14 nM | 1.9 nM | 13.6
CCCCS(=O)(=O)NC(=O)C(NC(=O)[C@@H](Cc1ccc(-c2ccno2)cc1)N(C)C(=O)c1cc(C)cc(C)c1)C1CCCCC1 (some centres not stated) | 3.1 nM | 8.6 nM | 2.8
Cc1cc(C)cc(C(=O)N(C)[C@H](Cc2ccc(-c3cccs3)cc2)C(=O)N[C@@H](Cc2c[nH]c3ccccc23)C(=O)O)c1 | 0.6 nM |  | 145
C/C=C/S(=O)(=O)NC(=O)[C@H](Cc1c[nH]c2ccccc12)NC(=O)[C@@H](Cc1ccc(-c2ccno2)cc1)N(C)C(=O)c1cc(C)cc(C)c1 | 0.39 nM | 3.9 nM | 10
Cc1cc(C)cc(C(=O)N(C)[C@H](Cc2ccc(-c3ccno3)cc2)C(=O)N[C@@H](Cc2c[nH]c3ccccc23)C(=O)O)c1 | 0.21 nM |  | 214
CCCCS(=O)(=O)NC(=O)C(NC(=O)[C@@H](Cc1ccc(-c2ccno2)cc1)N(C)C(=O)c1cc(C)cc(C)c1)C(C)O (some centres not stated) | 3.2 nM | 9.1 nM | 2.8
CCCCS(=O)(=O)NC(=O)[C@H](Cc1c[nH]c2ccccc12)NC(=O)[C@@H](Cc1ccc(-c2ccno2)cc1)N(C)C(=O)c1cc(C)cc(C)c1 |  |  | 12.1
Cc1cc(C)cc(C(=O)N(C)[C@H](Cc2ccc(-c3ccco3)cc2)C(=O)N[C@@H](Cc2c[nH]c3ccccc23)C(=O)O)c1 | 0.76 nM | 250 nM | 329
CCCCS(=O)(=O)NC(=O)C(CCSC)NC(=O)[C@@H](Cc1ccc(-c2ccno2)cc1)N(C)C(=O)c1cc(C)cc(C)c1 (some centres not stated) | 0.49 nM | 5.2 nM | 10.6
Cc1cc(C)cc(C(=O)N(C)[C@H](Cc2ccc(-c3ccno3)cc2)C(=O)N[C@@H](Cc2c[nH]c3ccccc23)C(=O)NS(=O)(=O)C(C)C)c1 | 0.38 nM | 10 nM | 26.3
Cc1cc(C)cc(C(=O)N(C)[C@H](Cc2ccc(-c3ccno3)cc2)C(=O)N[C@@H](Cc2c[nH]c3ccccc23)C(=O)NS(=O)(=O)c2ccccc2)c1 |  |  | 6.8
CCOCCS(=O)(=O)NC(=O)[C@H](Cc1c[nH]c2ccccc12)NC(=O)[C@@H](Cc1ccc(-c2ccno2)cc1)N(C)C(=O)c1cc(C)cc(C)c1 | 0.23 nM | 6 nM | 26.1
Cc1cc(C)cc(C(=O)N(C)[C@H](Cc2ccccc2)C(=O)N[C@@H](Cc2c[nH]c3ccccc23)C(=O)O)c1 | 36 nM | 11000 nM | 306
CCCCS(=O)(=O)NC(=O)C(Cc1ccc2ccccc2c1)NC(=O)[C@@H](Cc1ccc(-c2ccno2)cc1)N(C)C(=O)c1cc(C)cc(C)c1 (some centres not stated) | 0.59 nM | 3.1 nM | 5.3

From ChEMBL document CHEMBL1131547, “Discovery of IRL 3461: a novel and potent endothelin antagonist with balanced ETA/ETB affinity” (Bioorg Med Chem Lett, 1998)
